Literature values in patent publication US20220142894A1, “A PROCESS OF COLORING KERATINOUS MATERIAL COMPRISING THE USE OF AN ORGANOSILICON COMPOUND, AN EFFECT PIGMENT, AND A SEALING REAGENT V” (Henkel AG & Co. KGaA, priority 2019, published 2022).

Conditions: 25° C.

Row | solubility in water (in words) | Compound | solubility in water
1 | – | Nc1cc(S(=O)(=O)[O-])cc2cc(S(=O)(=O)[O-])c(N=Nc3ccccc3)c(O)c12.[Na+].[Na+] [Acid Red 33, disodium salt of 5-amino-4-hydroxy-3-(phenylazo)-naphthalene-2,7-disulphonate] | 2500 µg/mL
2 | highly soluble | O=C([O-])C1=NN(c2ccc(S(=O)(=O)[O-])cc2)C(=O)C1N=Nc1ccc(S(=O)(=O)[O-])cc1.[Na+].[Na+].[Na+] (centres unmarked) [Acid Yellow 23, trisodium salt of 4,5-dihydro-5-oxo-1-(4-sulfophenyl)-4-((4-sulfophenyl)azo)-1H-pyrazole-3-carboxylic acid] | –
3 | – | O=C([O-])c1c(Cl)c(Cl)c(Cl)c(Cl)c1-c1c2c(Br)cc(=O)c(Br)c-2oc2c(Br)c(O)cc(Br)c12.O=C([O-])c1c(Cl)c(Cl)c(Cl)c(Cl)c1-c1c2c(Br)cc(=O)c(Br)c-2oc2c(Br)c(O)cc(Br)c12.[Na+].[Na+] [Acid Red 92, disodium salt of 3,4,5,6-tetrachloro-2-(1,4,5,8-tetrabromo-6-hydroxy-3-oxoxanthen-9-yl)benzoic acid] | greater than 10 g/L
4 | – | CCN(Cc1cccc(S(=O)(=O)[O-])c1)c1ccc(C(=C2C=CC(=[N+](CC)Cc3cccc(S(=O)(=O)[O-])c3)C=C2)c2ccccc2S(=O)(=O)[O-])cc1.[Na+].[Na+] [Acid Blue 9] | more than 20 % by weight
5 | – | O=S(=O)([O-])c1ccc(N=Nc2c(O)ccc3ccccc23)cc1.[Na+] [Acid Orange 7, sodium salt of 4-[(2-hydroxy-1-naphthyl)azo]benzene sulphonate] | more than 7 g/L
